Test results reported in patent EP3360539A1, “PHARMACEUTICAL FORMULATION” (SapioTec GmbH, priority 2017, dated 2018).
Values after ≈ are worked out from the molar mass of the structure shown.

How the values were obtained:
[1] = pH 9
[2] = in HPBCD (10%); Fuchs et al. 2014; cited from earlier work

SMILES: O=C1CN(/N=C/c2ccc(-c3ccc([N+](=O)[O-])cc3)o2)C(O)=N1 [Dantrolen-Natrium]
- solubility thermodynamic at 24 h (physchem; 25% hpbcd in deionized water, Gelöstes Dantrolen-Natrium): 15.6 mg/mL (≈ 49.6 mM)
- solubility thermodynamic at 24 h (physchem; 25% hpbcd in deionized water, pH 9, Gelöstes Dantrolen-Natrium): 16 mg/mL (≈ 50.9 mM)
- solubility thermodynamic at 24 h (physchem; 25% hpbcd, 1% tris, water, pH 9, Gelöstes Dantrolen-Natrium): 14.4 mg/mL (≈ 45.8 mM)
- solubility thermodynamic at 24 h (physchem; water, 25% hpbcd, 2% glycerol, pH 9, organic solvent or mixture, Gelöstes Dantrolen-Natrium): 9.5 mg/mL (≈ 30.2 mM)
- solubility thermodynamic at 24 h (physchem; water, 25% hpbcd, arginine, pH 9, Gelöstes Dantrolen-Natrium): 8.5 mg/mL (≈ 27 mM)
- solubility thermodynamic at 24 h (physchem; water, 25% hpbcd, edta, pH 9, Gelöstes Dantrolen-Natrium): 3.6 mg/mL (≈ 11.5 mM)
- solubility thermodynamic at 24 h (physchem; water, 25% hpbcd, lysine, pH 9, Gelöstes Dantrolen-Natrium): 15.7 mg/mL (≈ 50 mM)
- Löslichkeit [1]: bemerkenswerte Steigerung der Löslichkeit
- Konzentration des gelösten Dantrolens in Lösung [2]: 0,137 mg/ml
